According to US8541464B2, “Treatment of atrial fibrillation” (HUYA Biosciences International LLC, priority 2009, dated 2013):
Values joined by “and” are separate entries in the source; they are usually repeats but may differ in a detail not shown here. Identical values can stand only once.

Experiment: Plasma concentration in minipig cardiovascular safety study
Type: in vivo
Method: A Swan Ganz (thermodilution catheter) was inserted into the right femoral vein via phlebotomy and advanced into the pulmonary artery for cardiac output measurements. A catheter was inserted in the left femoral artery via an arteriotomy for blood gas determination. Another catheter was inserted in the left femoral vein for blood collection for toxicokinetic evaluation. Finally, an incision was also performed on the left side of the neck to expose the left carotid artery and an electronic dual pressure sensor catheter (Millar) was placed via arteriotomy and advanced into the left ventricle. The catheter was positioned to simultaneously collect left ventricle blood pressure measurements as well as aortic pressure. In addition, a temporary catheter was placed in any of the cephalic veins for administration of Lactated Ringers at 10 mL/kg/hr throughout the course of the experiment.
Following surgical preparation, hemodynamic and electrocardiographic parameters were allowed to stabilize for at least 15 minutes. The vehicle control and test article were then administered, and hemodynamic, electrocardiographic, histamine and PK parameters were monitored.
Peak plasma concentrations of sulcardine sulfate increased with increasing dose. […]

## sulcardine sulfate
90 mg/kg, 15 minute infusion
  mean peak plasma concentration: 25.6 ug/mL and 56.3 μM
minipigs, read-out: Cmax that led to observed side effects such as hypotension
  Cmax: 13.6 µM
